Measurements as given in ChEMBL document CHEMBL5370534, “Discovery of novel triazine derivatives as potent retinoic acid receptor-related orphan receptor γt (RORγt) inverse agonists” (Eur J Med Chem, 2023).

Tests used:
[1] = Half life in mouse liver microsomes at 1 mM in presence of NADPH by HPLC-MS/MS analysis; parameters: dose or concentration left out as unconfirmed
[2] = biological target: T1, Nuclear receptor ROR-gamma (Homo sapiens, UniProt P51449)
T1 sequence (P51449 whole entry): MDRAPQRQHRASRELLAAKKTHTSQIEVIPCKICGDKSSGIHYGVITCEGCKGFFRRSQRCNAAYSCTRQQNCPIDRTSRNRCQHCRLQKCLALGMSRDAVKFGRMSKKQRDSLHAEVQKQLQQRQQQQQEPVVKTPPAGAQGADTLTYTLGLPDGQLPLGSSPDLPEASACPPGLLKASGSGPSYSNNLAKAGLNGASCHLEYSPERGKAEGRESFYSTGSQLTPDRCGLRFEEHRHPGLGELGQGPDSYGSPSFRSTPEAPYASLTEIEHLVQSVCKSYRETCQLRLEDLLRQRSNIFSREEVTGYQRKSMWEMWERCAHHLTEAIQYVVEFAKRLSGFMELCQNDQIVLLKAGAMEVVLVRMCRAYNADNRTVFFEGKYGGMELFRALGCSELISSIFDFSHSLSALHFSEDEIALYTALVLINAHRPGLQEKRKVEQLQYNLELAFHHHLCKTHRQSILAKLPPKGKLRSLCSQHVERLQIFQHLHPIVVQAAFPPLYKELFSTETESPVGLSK

[3] = biological target: T1, Nuclear receptor ROR-gamma; remark: listed apart in the source
Mus musculus = assay: Antiinflammatory activity against imiquimod-induced psoriasis BALB/c mouse model assessed as reduction in psoriasis symptoms at 0.4 mg/kg, po qd for 7 days; details: 168 h, read-out: INH

IC50 [2] [nM] | Compound | also measured
32 | CC(=O)Nc1ccc(Nc2nc(Oc3c(Cl)cccc3C(F)(F)F)nc(-c3ccc(C(F)(F)F)cc3)n2)cc1 | half-life [1]: 17.8 min
241 | Cc1cccc(-c2nc(Nc3ccc(C(=O)O)cc3)nc(Oc3c(Cl)cccc3Cl)n2)c1 | –
99.5 | CC(C)(C)c1ccc(-c2nc(Nc3ccc(C(=O)O)cc3)nc(Oc3c(Cl)cccc3Cl)n2)cc1 | –
12.9 | CNC(=O)c1ccc(Nc2nc(Oc3c(Cl)cccc3Cl)nc(-c3ccc(OC)cc3)n2)cc1 | –
16.7 | CNC(=O)c1ccc(Nc2nc(Oc3c(Cl)cccc3C(F)(F)F)nc(-c3ccc(OC)cc3)n2)cc1 | –
3420 | O=C(O)c1ccc(Nc2nc(Oc3c(Cl)cccc3Cl)nc(C3CCCC3)n2)cc1 | –
91 | COc1ccc(-c2nc(Nc3cccc(C(=O)O)c3)nc(Oc3c(Cl)cccc3Cl)n2)cc1 | –
152 | O=C(O)c1ccc(Nc2nc(Oc3c(Cl)cccc3Cl)nc(-c3ccc(F)cc3)n2)cc1 | –
61.7 | Cc1ccc(-c2nc(Nc3ccc(C(=O)O)cc3)nc(Oc3c(Cl)cccc3Cl)n2)cc1 | –
32.5 | CNS(=O)(=O)c1ccc(Nc2nc(Oc3c(Cl)cccc3Cl)nc(-c3ccc(OC)cc3)n2)cc1 | –
13.3 | COc1ccc(-c2nc(Nc3ccc(C(N)=O)cc3)nc(Oc3c(Cl)cccc3Cl)n2)cc1 | –
83 | COc1ccc(-c2nc(Nc3ccc(C(=O)O)c(O)c3)nc(Oc3c(Cl)cccc3Cl)n2)cc1 | –
99.5 | COc1ccc(-c2nc(Nc3ccc(C(C)C(=O)O)cc3)nc(Oc3c(Cl)cccc3Cl)n2)cc1 (stereo unspecified) | –
22.5 | CNC(=O)c1ccc(Nc2nc(Oc3c(Cl)cccc3Cl)nc(-c3ccc(C(F)(F)F)cc3)n2)cc1 | –
822 | COc1ccc(-c2nc(NC3CCC(C(=O)O)C3)nc(Oc3c(Cl)cccc3Cl)n2)cc1 (stereo unspecified) | –
68.6 | O=C(O)c1ccc(Nc2nc(Oc3c(Cl)cccc3Cl)nc(-c3ccc(C(F)(F)F)cc3)n2)cc1 | half-life [1]: > 145 min; IC50 [3]: 1620 nM
596 | O=C(O)c1ccc(Nc2nc(Oc3c(Cl)cccc3Cl)nc(C3CCCCC3)n2)cc1 | –
– | CN(Cc1cnc2nc(N)nc(N)c2n1)c1ccc(C(=O)N[C@@H](CCC(=O)O)C(=O)O)cc1 [METHOTREXATE] | inhibition in vivo at 0.4 mg/kg (Mus musculus): 53.1%
